Assay results: publication PMC4528135, “Kinetic Investigations of the Role of Factor Inhibiting Hypoxia-inducible Factor (FIH) as an Oxygen Sensor” (The Journal of Biological Chemistry, 2015)
Several values for one entry are separate records, joined by “and”; a condition that tells them apart may be missing. Identical values can stand only once.

Experiments:
FIH [1] = biological target: T1, FIH (Homo sapiens, UniProt Q9NWT6); assay: Rapid quench-flow, FIH pre-steady-state product and succinate formation; format: biochemical; conditions: for Rapid quench-flow kproduct / Rapid quench-flow ksuccinate: 0.5 mM apo-FIH, 0.4 mM Fe(II), 5 mM 2OG, 1 mM substrate, 50 mM HEPES pH 7.5, O2-saturated buffer 1:1, 5 °C, quenched with 1% CF3CO2H; for Rapid quench-flow kproduct: hydroxylation by MALDI-TOF-MS, 1–3 separate experiments; for Rapid quench-flow ksuccinate: succinate by LC-MS
T1 construct: Full-length recombinant FIH, two- and three-consensus ankyrin repeats (2CA and 3CA) were produced as described; His6 (cleaved yes); made in house; host or cells: Escherichia coli BL21(DE3)
T1 sequence (Q9NWT6 whole entry): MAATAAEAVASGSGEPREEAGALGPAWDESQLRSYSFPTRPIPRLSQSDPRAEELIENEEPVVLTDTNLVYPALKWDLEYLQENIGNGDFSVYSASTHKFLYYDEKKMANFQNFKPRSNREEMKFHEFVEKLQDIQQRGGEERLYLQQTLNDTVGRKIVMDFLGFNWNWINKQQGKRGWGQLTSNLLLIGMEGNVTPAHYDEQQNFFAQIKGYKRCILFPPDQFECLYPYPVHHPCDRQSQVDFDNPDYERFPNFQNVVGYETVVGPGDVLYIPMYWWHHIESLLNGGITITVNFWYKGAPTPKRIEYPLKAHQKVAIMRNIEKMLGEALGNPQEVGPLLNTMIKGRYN
Method: Rapid quench-flow experiments were performed using the same conditions and preparation of the assay mixture as used in stopped-flow experiments. Rapid quench-flow equipment (TgK Scientific Ltd.) in an anaerobic glove box was used for the experiments. Samples were quenched with 1% CF3CO2H and analyzed using MALDI-TOF-MS (peptide hydroxylation) as described above or liquid chromatography-mass spectrometry (LC-MS, for succinate production). For LC-MS, chromatographic separation was performed at 50 °C using a Waters ACQUITY BEH Amide 1.7-μm, 2.1 × 100-mm column on a Waters ACQUITY^TM ultraperformance liquid chromatography system (Waters Corp., Milford, MA). The following eluents were used: mobile phase A: 10% H2O, 90% acetonitrile (v/v), 10 mM ammonium formate; mobile phase B: 50% H2O, 50% acetonitrile (v/v), 10 mM ammonium formate. The elution gradient was 0–7.0 min linear from 10 to 30% B, and 7.0–9.0 min at 10% B for re-equilibration of the column. A constant flow rate of 0.4 ml/min was used. Analytes were detected in negative ionization mode using single reaction monitoring on a Quattro triple quadrupole mass spectrometer (Waters) with a cone voltage of 15 V and a capillary voltage of 3.0 kV. The desolvation temperature was set to 250 °C, and the source temperature was set to 120 °C.
FIGURE 9. Rapid quench-flow experiments showing FIH-catalyzed hydroxylation of HIF-1/2α CAD and ARD substrates. Reaction mixtures containing anaerobic 0.5 mM apo-FIH, 0.4 mM Fe(II), 5 mM 2OG, 1 mM peptide in HEPES 50 mM (pH 7.5) were rapidly mixed with O2-saturated buffer at 5 °C in a 1:1 ratio and then quenched with 1% CF3CO2H at defined time points. The data were fitted with the function, y = a·(1 − exp(−bx)) + c. Hydroxylation levels were assessed by MALDI-TOF-MS. A, hydroxylation of HIF-1α CAD, 1CA, and tankyrase-1 peptide substrates (19- and 20-mers); B, hydroxylation of HIF-1α, HIF-2α, and tankyrase-1 35-mer peptide substrates; C, hydroxylation of 1CA, 2CA, and 3CA. Data plotted were cumulatively acquired over the course of 1–3 separate experiments.

FIH [2] = biological target: T1, FIH; assay: O2 dependence of FIH-catalyzed hydroxylation (hypoxia workstation); format: biochemical; conditions: for Km: FIH with the named substrate, 5 μM FIH, 500 μM peptide, 50 μM Fe(II), 1 mM 2OG, 1 mM L-ascorbate, 50 mM HEPES pH 7.5, 37 °C, hypoxia workstation at different pO2, triplicate assays, read-out: Km^app(O2)
Method: The O2 dependence of FIH-catalyzed reactions was determined by conducting enzymatic assays in an “In vivo 500 Hypoxia Workstation” (Ruskinn) using buffers pre-equilibrated under different pO2 values for 24 h. The O2 dependence of PHD2-catalyzed reactions was determined by conducting enzymatic assays in sealed glass vials with variable N2/O2 contents ([42]). Reactions were stopped by spotting samples onto a matrix-assisted laser desorption/ionization-time of flight mass spectrometry (MALDI-TOF-MS) target plate and immediately mixing with α-cyano-4-hydroxycinnamic acid matrix. Hydroxylation levels were assessed by MALDI-TOF-MS as described ([46]).
FIGURE 4. O2 dependence of FIH- and PHD2-catalyzed hydroxylation of HIF-1/2α. A, O2 dependence of PHD2-catalyzed hydroxylation of HIF-1/2α CODD/NODD 19-mer peptides. 4 μM PHD2, peptide (varied), 50 μM Fe(II), 2OG (varied), 4 mM L-ascorbate in HEPES 50 mM (pH 7.5) were incubated at 37 °C. The different O2 levels were maintained using mass flow controllers ([42]), and the hydroxylation levels were analyzed by MALDI-TOF-MS. B, O2 dependence of FIH-catalyzed hydroxylation of CAD HIF-1/2α 35-mer peptides. Conditions were as follows. 5 μM FIH, 500 μM peptide, 50 μM Fe(II), 1 mM 2OG, 1 mM L-ascorbate in HEPES 50 mM (pH 7.5) were incubated at 37 °C in a hypoxia work station under different pO2. […] Error bars, S.D. of triplicate assays.
FIGURE 8. Time course and O2 dependence of the FIH-catalyzed hydroxylation of HIF-α CAD and ARD substrates. Conditions were as follows. 5 μM FIH, 500 μM peptide, 50 μM Fe(II), 1 mM 2OG, 1 mM L-ascorbate in HEPES 50 mM (pH 7.5) were incubated at 37 °C. For O2 dependence studies, reactions were carried out in a hypoxic work station under different pO2 (assays at >20% O2 conducted using mass flow controllers ([42])). The different hydroxylation levels were analyzed by MALDI-TOF-MS or by LC-MS (for 2CA and 3CA). […] Error bars, S.D. of triplicate assays. A, time course of consensus ARD substrate hydroxylation (tankyrase-1 (tnkrs-1 20-mer and 35-mer) and one-consensus ankyrin repeat 20-mer (1CA)). B, time course of ARD peptide hydroxylation (one-consensus ankyrin repeat 20-mer (1CA), two ankyrin repeats (2CA), and three ankyrin repeats (3CA)). C, O2 dependence of HIF-1/2α CAD, 1CA, and tnkrs-1_35-mer hydroxylation. D, O2 dependence of 1CA, 2CA, and 3CA hydroxylation.

“AAGYNNLEVAEYLLEHGADVNAQDKGGLIPLHNAA [tnkrs-1_35-mer, 35-mer fragment of tankyrase-1, ARD substrate of FIH]” was tested, and the Rapid quench-flow kproduct (FIH [1]) was 11 ± 3 s⁻¹, the Rapid quench-flow kproduct (FIH [1]; listed as tnkrs-1_35mer) was 11 s⁻¹ and the Rapid quench-flow ksuccinate (FIH [1]) was 10 ± 3 s⁻¹. The “product formation rate, fold faster than for the 20-mer” value (FIH [1]; rapid quench-flow, 5 °C) was ~7 fold and the Km (FIH [2]) was 50 ± 10 µM.
Work on “DESGLPQLTSYDCEVNAPIQGSRNLLQGEELLRAL [HIF-1α CAD35-mer]” yielded a Rapid quench-flow kproduct (FIH [1]) of 0.33 s⁻¹, a Rapid quench-flow kproduct (FIH [1]; listed as CAD HIF-1α35-mer) of 0.33 ± 0.07 s⁻¹ and a Rapid quench-flow ksuccinate (FIH [1]) of 0.3 ± 0.1 s⁻¹. For the same sequence, the Km (FIH [2]) was 110 ± 30 µM and the “Half-saturation of O2” value (FIH [2]; FIH-catalyzed hydroxylation, hypoxia workstation, 37 °C) was 9–11 % O2.
In the case of “ESYLLPELTRYDCEVNVPVLGSSTLLQGGDLLRAL [HIF-2α CAD35-mer]”, the Rapid quench-flow kproduct (FIH [1]) is reported as 0.12 ± 0.01 s⁻¹, the Rapid quench-flow ksuccinate (FIH [1]) is reported as 0.11 ± 0.03 s⁻¹ and the Km (FIH [2]) is reported as 110 ± 10 µM.
In the case of “GSHMGSDLGKKLLEAARAGQDDEVRILMANGADVAAKDKNGSTPLHLAARNGHLEVVKLLLEAGADVNAQDKFGKTAFDISIDNGNEDLAEILQ [3CA, recombinant three-consensus ankyrin repeat protein produced in Escherichia coli]”, the Rapid quench-flow kproduct (FIH [1]) is reported as 0.051 s⁻¹ and 0.051 ± 0.001 s⁻¹, the “Km^app(O2) fold higher than in the presence of 1CA and 2CA” value (FIH [2]; FIH) is reported as 2 fold and the Km (FIH [2]) is reported as 120 ± 20 µM.
In the case of HLEVVKLLLEAGADVNAQDK [1CA20-mer], the Rapid quench-flow kproduct (FIH [1]) is reported as 1.3 ± 0.2 s⁻¹, the Rapid quench-flow ksuccinate (FIH [1]) is reported as 0.8 ± 0.3 s⁻¹ and the “product accumulation rate, fold faster than the reaction with HIF 35-mer substrates” value (FIH [1]; rapid quench-flow, 5 °C) is reported as ~10 fold. The Km (FIH [2]) was 40 ± 10 µM.
“SDKNGSTPLHLAARNGHLEVVKLLLEHGADVNAQDKWGKTAFDISIDNGNEDLAEILQ [2CA, recombinant two-consensus ankyrin repeat protein produced in Escherichia coli]” was tested, and the Rapid quench-flow kproduct (FIH [1]) was 0.5 ± 0.1 s⁻¹ and the Km (FIH [2]) was 56 ± 15 µM.
